Experimental data taken from patent US20120244192A1, “SUSTAINED RELEASE FORMULATIONS OF PEPTIDOMIMETIC DRUGS AND USES THEREOF” (priority 2009, published 2012).

Key:
C5a receptor = target: T1, C5a receptor (Mus musculus, UniProt P30993); test: Reverse Passive Arthus Reaction model, immune complex peritonitis; assay type: in vivo, mice; settings: intraperitoneal injection of 1 mg/kg as a liquid formulation
T1 construct: from tissue; host or cells: live mice (peritoneal neutrophil chemotaxis, in vivo)
T1 sequence (P30993 1-351): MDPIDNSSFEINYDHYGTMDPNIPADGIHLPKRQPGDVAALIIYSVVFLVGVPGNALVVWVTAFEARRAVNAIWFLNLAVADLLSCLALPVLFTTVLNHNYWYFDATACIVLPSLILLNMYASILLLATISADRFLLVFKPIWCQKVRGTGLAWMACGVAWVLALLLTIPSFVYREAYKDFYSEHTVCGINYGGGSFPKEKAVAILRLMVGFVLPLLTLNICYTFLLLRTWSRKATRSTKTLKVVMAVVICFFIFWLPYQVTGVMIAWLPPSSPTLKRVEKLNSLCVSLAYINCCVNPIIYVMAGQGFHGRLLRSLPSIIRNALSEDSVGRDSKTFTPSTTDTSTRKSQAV
From the text: C5a is a potent chemokine, inducing polymorphic nucleated granulocyte (neutrophils) and monocyte/macrophage chemotaxis. In the Reverse Passive Arthus Reaction model in mice, an immune complex peritonitis is induced by the intravenous administration of ovalbumin followed by intraperitoneal administration of an anti-ovalbumin antiserum, which leads to the formation of antigen-antibody complexes and subsequent activation of the complement system, including generation of C5a [Heller et al., 1999]. (Heller et al (1999) J Immunol 163; 985-994).

C5aR = target: T2, C5aR (Mus musculus, UniProt P30993); test: Allogenic kidney transplantation model (ischemia reperfusion injury); assay type: in vivo, mice
T2 construct: from tissue; host or cells: live mice (kidney allograft recipients, in vivo)
T2 sequence (P30993 1-351): T1 sequence (P30993 1-351)
From the text: (Arumugam, T. V., Shiels I. A., Strachan, A. J., et al (2003) A small molecule C5a receptor antagonist protects kidneys from ischemia/reperfusion injury in rats. Kidney Int 63; 134-142, De Vries B, Matthijsen R A, Wolfs T G et al (2003a) Inhibition of complement factor C5 protects against renal ischemia-reperfusion injury: inhibition of late apoptosis and inflammation Transplantation 75; 375-382, De Vries B, Kohl J, Leclercq W K et al (2003b) Complement factor C5a mediates renal ischemia-reperfusion injury independent of neutrophils. J Immunol 170; 3883-3889.) JPE1375 liquid formulation is active in an allogenic transplantation model in mice. In this model rejection of the transplant is based on an ischemia reperfusion injury with measures of animal/graft survival and renal function. Blockade of C5aR with JPE1375 liquid formulation after transplantation prolonged survival of the animals from days to greater than 12 weeks compared to controls. C5aR blockade with JPE1375 microparticle sustained release formulation is expected to provide similar benefit after a single dose.

With “Hoo-Phe-Orn-Pro-hle-Pff-Phe-NH2 [JPE1375]” the “inhibition of C5a receptor mediated chemotaxis” value (C5a receptor) was “high in vivo potency”, the “survival of the animals” value (C5aR; after transplantation, prolonged from days, compared to controls) was “greater than 12 weeks” and the “activity in allogenic transplantation model” value (C5aR; liquid formulation) was “active”.
